The numbers were not newly measured in patent US20200253960A1, “ANTIBIOTIC FORMULATIONS FOR TREATING OF CAVITY INFECTIONS” (ARADIGM CORPORATION, priority 2019, published 2020), which cites them from elsewhere.

This data set deals with Pseudomonas aeruginosa. Conditions: cystic fibrosis.

`CC[C@H]1OC(=O)[C@H](C)[C@@H](O[C@H]2C[C@@](C)(OC)[C@@H](O)[C@H](C)O2)[C@H](C)[C@@H](O[C@@H]2O[C@H](C)C[C@H](N(C)C)[C@H]2O)[C@](C)(O)C[C@@H](C)CN(C)[C@H](C)[C@@H](O)[C@]1(C)O` [azithromycin]: the “interaction with inhaled tobramycin” value is “antagonistic against inhaled tobramycin”.
